Laboratory results from US20050222266A1, “2-indanylamino derivatives for the therapy of chronic pain” (priority 2002, published 2005).

Experiments:
rat MES model = conditions: cited from earlier work
[1] = tested on: mechanical hyperalgesia in streptozotocin (STZ)-induced diabetic neuropathy; experiment: streptozotocin-induced diabetic neuropathy, paw pressure test; assay type: in vivo, rat; conditions: 100 mg/kg p.o.
Experimental: The objective of this study was to assess the antinociceptive effects of CHF 3381 (25, 50 and 100 mg/kg p.o.) and gabapentin (100 mg/kg p.o) on mechanical hyperalgesia in streptozotocin (STZ)-induced diabetic neuropathy in rats. Diabetes was induced by intraperitoneal injection of STZ (75 mg/kg), and 23 days later its presence was confirmed by measuring of tail vein blood glucose levels and only rats with […] were included in the study.
After 25 days, distilled water, CHF3381 and gabapentin were administered 60 minutes before pain measurement. The nociceptive threshold was evaluated in all groups using a mechanical nociceptive stimulation (paw pressure test).
An increasing pressure (grams of contact pressure) was applied onto the both hind paws of the animal until a nociceptive reaction (vocalisation or paw withdrawal) was determined. The results, expressed as the percentage variation of the nociceptive threshold calculated respect the mean value of the vehicle-treated diabetic group, are reported in Table 2.

[2] = tested on: formalin-induced licking and flinching; experiment: mouse formalin test, 9 day treatment (tolerance); assay type: in vivo, mice
Experimental: The mice paw formalin test was performed as described by Wheeler-Aceto et al. (Psychopharmacology 104:35-44, 1991). Briefly, the day before the formalin injection, mice were placed individually into clear plastic cylinders for 30 minutes of adaptation. The day of testing 20 μl of 1% formalin was injected into the plantar surface of the left hind paw and the animals were again placed into the plastic cylinder for the behavioural observation. The amount of time, in seconds, the animals spent licking and flinching (L/F) the injected paw for the first 5 min (early phase), and then from 10 to 40 min(late phase) after formalin injection, was used as measurement of intensity of pain. CHF 3381 10-100 mg/kg i.p. and 25-200 mg/kg p.o. or the corresponding vehicles, were administered 15 and 30 min before formalin injection, respectively.
Moreover, the formalin test was used to examine whether tolerance develops with respect to the antihyperalgesic effect of CHF 3381 after chronic treatment in comparison with the standard opioid morphine. Briefly, mice were divided randomly into five groups (12 mice per group) and administered once daily for 8 days as follows: three groups with saline i.p., one group with CHF 3381 60 mg/kg i.p. and one group with morphine 20 mg/kg i.p. On ninth day these groups were treated in following way: one saline pre-treated group was treated with saline i.p. (g1); two saline pre-treated group were treated with CHF 3381 30 mg/kg i.p. (g2) and with morphine 6 mg/kg i.p. (g3), respectively; the group pre-treated with CHF 3381 60 mg/kg was treated with CHF 3381 30 mg/kg i.p. (g4) and the group pre-treated with morphine 20 mg/kg was treated with morphine 6 mg/kg i.p.(g5), a dose that was previously shown to be active in the formalin test. CHF 3381 and morphine were administered 15 and 30 min before formalin injection, respectively.

[3] = G3: 6 mg/kg i.p. on ninth day after 8 days saline
[4] = G5: 6 mg/kg i.p. on ninth day after 8 days morphine 20 mg/kg i.p.

CC(NC1Cc2ccccc2C1)C(N)=O.Cl (stereo not shown) [2-(2-indanylamino)-propanamide hydrochloride]
anti-convulsivant activity (rat MES model): anti-convulsivant activity

Cl.NC(=O)C(CO)NC1Cc2ccccc2C1 (stereo not shown) [3-hydroxy-2-(2-indanylamino)-propanamide hydrochloride]
anti-convulsivant activity (rat MES model): anti-convulsivant activity

NCC1(CC(=O)O)CCCCC1 [Gabapentin, gabapentin, reference compound]
Nociceptive threshold ([1]; 60 minutes before measurement): 229.2 ± 32.3 g | % variation of the nociceptive threshold ([1]; vs vehicle-treated diabetic group): 68%

CN1CC[C@]23c4c5ccc(O)c4O[C@H]2[C@@H](O)C=C[C@H]3[C@H]1C5 [Morphine, morphine, reference compound]
Early phase [2, 3]: 52 ± 15 s | Late phase [2, 3]: 91 ± 21 s | Early phase [2, 4]: 95 ± 9 s | Late phase [2, 4]: 175 ± 22 s | antihyperalgesic action after chronic treatment (tolerance) ([2]; once daily for 8 days, test on ninth day): failed to show such actions

CN(CC(N)=O)C1Cc2ccccc2C1.Cl [N-2(indanyl)-N-methyl glicinamide hydrochloride]
anti-convulsivant activity (rat MES model): anti-convulsivant activity
